Laboratory results: US20240139220A1, “TREATMENT OF HPV INFECTION” (priority 2022, published 2024)
In brackets after ≈: the same amount, converted by molar mass. Read-outs that look alike come from different tables or passages of the source.

Tests used:
Assay type in all cases: physicochemical
[1] = Bulk stability, accelerated storage for one week (HPLC, XRPD)
Procedure: Bulk stability: Accelerated stability experiments were conducted at 25° C./92% RH and 40° C./75% RH in an open container, 60° C. in a tight container for one week.
Samples were characterized by XRPD and HPLC and inspected for color change.
Accelerated stability experiments were conducted at 25° C./92% RH in an open container, at 40° C./75% RH in an open container, and at 60° C. in a tight container for one week.

[2] = Solubility in buffers, water and simulated vaginal fluid at 37° C.
Procedure: About 4 mg of Compound I Pattern 1 was added into 2 mL of buffer solution.
(§1) Solubility was tested in five media, pH 3.0 citrate buffer, pH 4.5 acetate buffer, pH 6.8 phosphate buffer, water, simulated vaginal fluid (pH 4.2) at 37° C. for 0.5 h and 2 h.
The salt amount used is equivalent to 10 mg anhydrous free base. […] The obtained clear solutions were analyzed by pH meter for pH, and solubility was determined by observation.
as §1

[3] = Hygroscicity by Dynamic Vapor Sorption (DVS) at 25° C.; settings: for D. (%) Cycle 1 (Desorption) / D. (%) Cycle 2 (Desorption) / S. (%) Cycle 1 (Sorption) / S. (%) Cycle 2 (Sorption) / XRPD after DVS test: 25° C.; for XRPD after DVS test: cycle 40-0-95-0-40% RH; for Water uptake: DVS 25° C.
Procedure: Hygroscopicity was investigated by DVS at 25° C., using the following method: […]

[4] = Approximate solubility in solvents at 25° C. and 50° C. by visual observation; settings: thermodynamic from solid, read-out: Solubility
Procedure: The maximum volume of each solvent added was 1 mL. Approximate solubility was determined by visual observation.
Maximum volume of each solvent added was 1 mL. Approximate solubility was determined by visual observation.

[5] = 25° C., 84% RH, open container, 2 days
[6] = 25° C., 92% RH, open container, one week
[7] = 40° C., 75% RH, open container, one week
[8] = 60° C., tight container, one week
[9] = Simulated vaginal fluid (pH adjusted with 0.2N NaOH)
[10] = cycle of 40-0-95-0-45% relative humidity

## CCOC(=O)C(C)NP(=O)(COCCn1cnc2c(OC)nc(N)nc21)OCc1ccccc1.CCOC(=O)C(C)NP(=O)(COCCn1cnc2c(OC)nc(N)nc21)OCc1ccccc1.O=C(O)C=CC(=O)O (mixture of isomers) [Compound I Hemifumarate Pattern 1]
[1]; [5]
  XRPD: No change
[1]; [6]
  HPLC (chemical purity): 97.0%
  XRPD: No change
[1]; [7]
  HPLC (chemical purity): 90.9%
  XRPD: No change
[1]; 40° C./75% RH and 60° C. for one week
  Degradation compared: tends to degrade more than Compound I monofumarate Pattern 1
[1]; [8]
  HPLC (chemical purity): 82.3%
  XRPD: No change
[1]; Initial
  HPLC (chemical purity): 97.8%
[2]; [9]
  Solubility 0.5 hrs: >2 mg/mL
  Solubility 2 hrs: >2 mg/mL
  pH at 2 hrs: (5.30)
[2]; Water
  Solubility 0.5 hrs: >2 mg/mL
  Solubility 2 hrs: >2 mg/mL
  pH at 2 hrs: (3.38)
[2]; pH 3.0 100 mM citrate buffer
  Solubility 0.5 hrs: >2 mg/mL
  Solubility 2 hrs: >2 mg/mL
  pH at 2 hrs: (3.07)
[2]; pH 4.5 50 mM acetate buffer
  Solubility 0.5 hrs: >2 mg/mL
  Solubility 2 hrs: >2 mg/mL
  pH at 2 hrs: (4.45)
[2]; pH 6.8 50 mM phosphate buffer
  Solubility 0.5 hrs: >2 mg/mL
  Solubility 2 hrs: >2 mg/mL
  pH at 2 hrs: (6.68)
[3]; 0% RH
  D. (%) Cycle 1 (Desorption): 0.13%
  D. (%) Cycle 2 (Desorption): 0.00%
  S. (%) Cycle 1 (Sorption): 0.13%
  S. (%) Cycle 2 (Sorption): 0.00%
[3]; 10% RH
  D. (%) Cycle 1 (Desorption): 0.36%
  D. (%) Cycle 2 (Desorption): 0.23%
  S. (%) Cycle 1 (Sorption): 0.34%
  S. (%) Cycle 2 (Sorption): 0.20%
[3]; 20% RH
  D. (%) Cycle 1 (Desorption): 0.56%
  D. (%) Cycle 2 (Desorption): 0.44%
  S. (%) Cycle 1 (Sorption): 0.53%
  S. (%) Cycle 2 (Sorption): 0.40%
[3]; 30% RH
  D. (%) Cycle 1 (Desorption): 0.79%
  D. (%) Cycle 2 (Desorption): 0.68%
  S. (%) Cycle 1 (Sorption): 0.73%
  S. (%) Cycle 2 (Sorption): 0.61%
[3]; 40% RH
  D. (%) Cycle 1 (Desorption): 1.04%
  D. (%) Cycle 2 (Desorption): 0.94%
  S. (%) Cycle 1 (Sorption): 0.96%
  S. (%) Cycle 2 (Sorption): 0.87%
[3]; 50% RH
  D. (%) Cycle 2 (Desorption): 1.26%
  S. (%) Cycle 1 (Sorption): 1.22%
[3]; 60% RH
  D. (%) Cycle 2 (Desorption): 1.68%
  S. (%) Cycle 1 (Sorption): 1.57%
[3]; 70% RH
  D. (%) Cycle 2 (Desorption): 2.25%
  S. (%) Cycle 1 (Sorption): 2.04%
[3]; 80% RH
  D. (%) Cycle 2 (Desorption): 3.14%
  S. (%) Cycle 1 (Sorption): 2.80%
[3]; 90% RH
  D. (%) Cycle 2 (Desorption): 4.84%
  S. (%) Cycle 1 (Sorption): 4.54%
[3]; 95% RH
  D. (%) Cycle 2 (Desorption): 6.87%
  S. (%) Cycle 1 (Sorption): 6.87%
[3]
  XRPD after DVS test: No form change,
[3]; up to 95% RH
  Water uptake: ~6.9%

## CCOC(=O)C(C)NP(=O)(COCCn1cnc2c(OC)nc(N)nc21)OCc1ccccc1 (mixture of isomers) [Compound I free base Pattern 1]
[1]; [5]
  XRPD: No change
[1]; [6]
  HPLC (chemical purity): 98.5%
  XRPD: No change
[1]; [7]
  HPLC (chemical purity): 95.2%
  XRPD: No change
[1]; [8]
  HPLC (chemical purity): 98.5%
  XRPD: No change
[1]; Initial
  HPLC (chemical purity): 98.7%
[2]; [9]
  Solubility 0.5 hrs: >2 mg/mL
  Solubility 2 hrs: >2 mg/mL
  pH at 2 hrs: (5.53)
[2]; Water
  Solubility 0.5 hrs: >2 mg/mL
  Solubility 2 hrs: >2 mg/mL
  pH at 2 hrs: (7.55)
[2]; pH 3.0 100 mM citrate buffer
  Solubility 0.5 hrs: >2 mg/mL
  Solubility 2 hrs: >2 mg/mL
  pH at 2 hrs: (2.98)
[2]; pH 4.5 50 mM acetate buffer
  Solubility 0.5 hrs: >2 mg/mL
  Solubility 2 hrs: >2 mg/mL
  pH at 2 hrs: (4.50)
[2]; pH 6.8 50 mM phosphate buffer
  Solubility 0.5 hrs: >2 mg/mL
  Solubility 2 hrs: >2 mg/mL
  pH at 2 hrs: (6.81)
[3]; 0% RH
  D. (%) Cycle 1 (Desorption): 0.00%
  D. (%) Cycle 2 (Desorption): 0.19%
  S. (%) Cycle 1 (Sorption): 0.00%
  S. (%) Cycle 2 (Sorption): 0.19%
[3]; 10% RH
  D. (%) Cycle 1 (Desorption): 0.11%
  D. (%) Cycle 2 (Desorption): 0.37%
  S. (%) Cycle 1 (Sorption): 0.08%
  S. (%) Cycle 2 (Sorption): 0.22%
[3]; 20% RH
  D. (%) Cycle 1 (Desorption): 0.23%
  D. (%) Cycle 2 (Desorption): 0.57%
  S. (%) Cycle 1 (Sorption): 0.17%
  S. (%) Cycle 2 (Sorption): 0.30%
[3]; 30% RH
  D. (%) Cycle 1 (Desorption): 0.47%
  D. (%) Cycle 2 (Desorption): 0.83%
  S. (%) Cycle 1 (Sorption): 0.28%
  S. (%) Cycle 2 (Sorption): 0.44%
[3]; 40% RH
  D. (%) Cycle 1 (Desorption): 0.60%
  D. (%) Cycle 2 (Desorption): 1.09%
  S. (%) Cycle 1 (Sorption): 0.41%
  S. (%) Cycle 2 (Sorption): 0.62%
[3]; 50% RH
  D. (%) Cycle 2 (Desorption): 1.48%
  S. (%) Cycle 1 (Sorption): 0.61%
[3]; 60% RH
  D. (%) Cycle 2 (Desorption): 1.96%
  S. (%) Cycle 1 (Sorption): 0.85%
[3]; 70% RH
  D. (%) Cycle 2 (Desorption): 2.78%
  S. (%) Cycle 1 (Sorption): 1.14%
[3]; 80% RH
  D. (%) Cycle 2 (Desorption): 4.33%
  S. (%) Cycle 1 (Sorption): 1.64%
[3]; 90% RH
  D. (%) Cycle 2 (Desorption): 9.10%
  S. (%) Cycle 1 (Sorption): 4.27%
[3]; 95% RH
  D. (%) Cycle 2 (Desorption): 14.32%
  S. (%) Cycle 1 (Sorption): 14.32%
[3]
  XRPD after DVS test: No form change,
[3]; up to 90% RH
  Water uptake: about 4.3%
[3]; up to 95% RH
  Water uptake: about 14.3%

## CCOC(=O)[C@H](C)N[P@](=O)(COCCn1cnc2c(OC)nc(N)nc21)OCc1ccccc1 (single isomer, unassigned) [Compound III, monofumarate]
[3]; [10]
  Fold increase of retained water content versus Compound II: 40 fold
  XRPD pattern after humidity cycle: lose one of the peaks
[3]; exposed to a cycle of 40-0-95-0-45% relative humidity
  Water content retained: about 10%

## CCOC(=O)[C@H](C)NP(=O)(COCCn1cnc2c(OC)nc(N)nc21)OCc1ccccc1 (stereo partly drawn) [Compound I, ethyl(((2-(2-amino-6-methoxy-9H-purin-9-yl)ethoxy)methylxbenzyloxy)-phosphoryl)-L-alaninate]
[4]; organic solvent or mixture, Acetone, 25° C.
  Solubility: > 100 mg/mL
[4]; organic solvent or mixture, Acetone, 50° C.
  Solubility: > 500 mg/mL
[4]; organic solvent or mixture, Acetonitrile (ACN), 25° C.
  Solubility: > 100 mg/mL
[4]; organic solvent or mixture, Acetonitrile (ACN), 50° C.
  Solubility: > 500 mg/mL
[4]; organic solvent or mixture, Dichloromethane (DCM), 25° C.
  Solubility: > 100 mg/mL
[4]; organic solvent or mixture, Dichloromethane (DCM), 50° C.
  Solubility: > 500 mg/mL
[4]; organic solvent or mixture, Ethanol (EtOH), 25° C.
  Solubility: > 100 mg/mL
[4]; organic solvent or mixture, Ethanol (EtOH), 50° C.
  Solubility: > 500 mg/mL
[4]; organic solvent or mixture, Ethyl acetate (EA), 25° C.
  Solubility: > 100 mg/mL
[4]; organic solvent or mixture, Ethyl acetate (EA), 50° C.
  Solubility: > 500 mg/mL
[4]; organic solvent or mixture, Heptanes, 25° C.
  Solubility: < 2 mg/mL
[4]; organic solvent or mixture, Heptanes, 50° C.
  Solubility: < 10 mg/mL
[4]; organic solvent or mixture, Isopropanol (IPA), 25° C.
  Solubility: > 100 mg/mL
[4]; organic solvent or mixture, Isopropanol (IPA), 50° C.
  Solubility: > 500 mg/mL
[4]; organic solvent or mixture, Isopropyl acetate (IPAc), 25° C.
  Solubility: > 100 mg/mL
[4]; organic solvent or mixture, Isopropyl acetate (IPAc), 50° C.
  Solubility: > 500 mg/mL
[4]; organic solvent or mixture, Methanol (MeOH), 25° C.
  Solubility: > 100 mg/mL
[4]; organic solvent or mixture, Methanol (MeOH), 50° C.
  Solubility: > 500 mg/mL
[4]; organic solvent or mixture, Methyl ethyl ketone (MEK), 25° C.
  Solubility: > 100 mg/mL
[4]; organic solvent or mixture, Methyl ethyl ketone (MEK), 50° C.
  Solubility: > 500 mg/mL
[4]; organic solvent or mixture, Methyl t-butyl ether (MTBE), 25° C.
  Solubility: < 2 mg/mL
[4]; organic solvent or mixture, Methyl t-butyl ether (MTBE), 50° C.
  Solubility: < 10 mg/mL
[4]; organic solvent or mixture, Tetrahydrofuran (THF), 25° C.
  Solubility: > 100 mg/mL
[4]; organic solvent or mixture, Tetrahydrofuran (THF), 50° C.
  Solubility: 167 to 250 mg/mL (≈ 339 to 508 mM)
[4]; Water, 25° C.
  Solubility: 20 to 25 mg/mL (≈ 40.6 to 50.8 mM)
[4]; Water, 50° C.
  Solubility: 25 to 27 mg/mL (≈ 50.8 to 54.8 mM)
